In publication PMC10734500, “Anti-virulence and bactericidal activities of Stattic against Shigella sonnei” (Applied and Environmental Microbiology, 2023):

What was measured:
GalU [1] = biological target: T1, GalU (Klebsiella oxytoca, UniProt A0A163UX09); test: microscale thermophoresis (MST) with expressed GalU homolog; assay type: binding
T1 construct: galUK.o in pET28a

GalU [2] = biological target: T2, GalU (Shigella sonnei, UniProt Q3Z0V1); test: microscale thermophoresis (MST) with purified GalU; supported by malachite green enzyme inhibition ([…] decrease at […]); assay type: binding
T2 construct: intact galU gene in pET28a (His-tagged)
T2 sequence (Q3Z0V1 entry or part of it): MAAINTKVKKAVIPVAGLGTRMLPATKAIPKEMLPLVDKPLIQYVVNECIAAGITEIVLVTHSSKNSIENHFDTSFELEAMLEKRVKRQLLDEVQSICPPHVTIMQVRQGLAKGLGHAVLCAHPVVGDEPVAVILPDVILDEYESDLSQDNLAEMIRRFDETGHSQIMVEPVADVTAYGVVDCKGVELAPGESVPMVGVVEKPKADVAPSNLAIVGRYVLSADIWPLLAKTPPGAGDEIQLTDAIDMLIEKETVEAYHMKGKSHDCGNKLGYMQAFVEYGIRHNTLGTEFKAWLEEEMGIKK

T1 sequence (A0A163UX09 entry or part of it): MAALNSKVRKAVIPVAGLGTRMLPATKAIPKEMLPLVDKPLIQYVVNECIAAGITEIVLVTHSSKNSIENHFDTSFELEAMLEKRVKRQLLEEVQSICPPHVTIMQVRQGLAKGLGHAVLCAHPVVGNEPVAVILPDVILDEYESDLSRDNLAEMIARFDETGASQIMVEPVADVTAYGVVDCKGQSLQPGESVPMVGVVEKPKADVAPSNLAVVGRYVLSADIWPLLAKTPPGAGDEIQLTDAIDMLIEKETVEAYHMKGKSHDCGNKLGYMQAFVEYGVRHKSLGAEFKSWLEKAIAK

Structure (SMILES): O=[N+]([O-])c1ccc2c(c1)S(=O)(=O)C=C2 [Stattic]
- Kd (GalU [1]): 50 ± 0.25 µM
- Kd (GalU [2]): 20 ± 0.35 µM
